Test results reported in paper PMC9166630, “SAR Probing of KX2-391 Provided Analogues With Juxtaposed Activity Profile Against Major Oncogenic Kinases” (Frontiers in Oncology, 2022).

System: Yes
Assay: PamChip tyrosine kinase microarray, Yes
Format: biochemical, human
Settings: 4e 0.1 µM, HL60 lysate
Description: The changes in kinase activities induced by treatment with 4e were monitored within the HL60 cell lines using PamGene’s (Hertogenbosch, Netherlands) PamChip® peptide microarray profiler, which quantifies the activities of 144 tyrosine kinases (YK) ([29], [30]) (Figure 7). Results are provided as a log fold change (LFC) heatmap and Mean Kinase Statistic. From the LFC it is apparent that compound 4e, at a concentration of 0.1 µM, induced sizable changes to the activity of several kinases within the cell signaling YK profile (Figure 7A).
An Upstream Kinase tool was used to generate a putative list of kinases responsible for phosphorylating the phospho-sites on the PamChip (Figure 7B) ([31]). It is an interpretation and is highly dependent on the contents of the underlying phosphorylation databases. A Kinase Score was used for ranking kinases based on their significance and specificity in terms of the set of peptides used for the corresponding kinase. Kinase Statistics indicates the overall change of the peptide set that represents the kinase. Kinase statistics value <0 indicates lower kinase activity in the compound spiked lysate and vice versa ([32], [33]). Table 5 lists the 20 most changed kinases within treated HL60 cell lysates by 0.1 μM 4e, ranked according to their Kinase Score.
The two multiple-kinase tests (PamChip and Phosphokinase Profiler) provided strong evidence of very minor involvement of Src in the cellular activities of 4e. However, the question must be raised about the effect of the 4e on other SRC family kinase (SFK). To address this point, we must highlight that both R&D phosphokinase profiler and PamChip feature Yes, Fgr, Lyn, Lck and Src while Fyn, Hck, Blk and Frk activities are tested in the PamChip only. The signals of SFKs in the R&D Phosphokinase Profiler were too weak to detect in both untreated (control) and 4e-treated HL60 cells. In PamChip assay, most of SFK’s were not ranked in the top 20 affected kinases (Table 5). In addition, their Specificity Score were very low (Table 6) indicating their marginal importance to the cell killing activities of 4e. Fgr kinase which ranked 7th in the list (Table 5) was the only SFK member that seems to be affected by the compound, albeit with low Specificity Score (1.03).
The compound 4e was spiked into HL60 cell lysate at different concentrations (0.001, 0.01, 0.1, 1, 10 and 50 μM). In addition, DMSO was also spiked in HL60 lysate at low concentration (2% v/v) as control. Samples were profiled on PamGene’s Tyrosine Kinase (PTK) arrays in technical replicates, covering a total of 196 phosphorylation sites. Frozen HL60 cultured cell pellet was sent to PamGene. […] Protein concentration was measured using standard Bradford assay as per PamGene SOPs. […]

Compound: O=C(Cc1ccc(NC(=O)c2cccc(Cl)c2)cc1)NCc1ccccc1 [Compound 4e, N-(4-(2-(benzylamino)-2-oxoethyl)phenyl)-3-chlorobenzamide]
- Mean Final Score: 1.1516
- Mean Kinase Statistic: -0.4139
- Mean Significance Score: 1.0126
- Mean Specificity Score: 0.1390
